Legend:
[1] = Test of the dissolution rate (USP 27 paddle apparatus); type: physicochemical; conditions: for release [%]: 20 mg in 1000 ml 0.1% aqueous SDS, 37° C., 75 rpm paddle, mean of three
Method: The dissolution rate of the crystalline hydrates of the formula I was tested as follows: […]
The dissolution rate is measured in a standard apparatus (paddle) according to the US Pharmacopeia (USP 27) at 37° C. The stirrer speed is 75 rpm.
20 mg of the substance to be examined are added to 1000 ml of a 0.1% strength aqueous sodium dodecylsulfate (SDS) solution. After 15, 30, 45 and 60 minutes, samples of 20 ml are taken.
The portion dissolved is determined photometrically at 256 nm using a comparison solution. The measurement is carried out in 10 mm cuvettes using, for example, a Perkin Elmer Lambda 25 photometer. The samples are measured directly after removal of the samples. In each case, a mean is calculated from three determinations.
The comparison solution is prepared as follows: 2-3 mg of the batch used are dissolved in 2 ml of dimethylformamide in a measuring flask. The volume is then made up to 100.0 ml using 0.1% strength SDS solution.
The amorphous compound of the formula I used in Example 2 was compared to the crystalline compound of the formula I obtained in the same Example 2.

[2] = test system: Cholesterol absorption; assay: Effect on cholesterol absorption + 3H-taurocholic acid elimination via fecal elimination; type: in vivo, NMRI mice; conditions: dose which doubles fecal elimination of TCA or cholesterol vs control group, peroral, feces collected over 24 h
Method: Effect on Cholesterol Absorption+^3H-Taurocholic Acid Elimination via Fecal Elimination in Mice, Rats or Hamsters
NMRI mice, Wistar rats or Golden Syrian hamsters (in groups of n=4-6) are kept with a standard diet (Altromin, Lage (Lippe), Germany) in metabolic cages. The afternoon prior to the administration of the radioactive tracers (^14C-cholesterol) the feed is withdrawn, and the animals are adapted to the cage wires.
In addition, 24 hours prior to the peroral administration of the test meal (^14C-cholesterol in Intralipid® 20, Pharmacia-Upjohn), the animals are labelled s.c. with ^3H-TCA (taurocholic acid) (for example 1 μCi/mouse to 5 μCi/rat).
Cholesterol absorption test: 0.25 ml/mouse Intralipid® 20 (Pharmacia-Upjohn) (spiked with 0.25 μCi ^14C-cholesterol in 0.1 mg of cholesterol) is administered perorally using a stomach tube. […]
The feces are collected over a period of 24 h: the fecal elimination of ^14C-cholesterol and 3H-taurocholic acid (TCA) is determined after 24 hours. […]
The total weight is determined, the sample is made up with water to a defined volume and then homogenized, an aliquot is evaporated to dryness and incinerated in an Oximate (Model 307, Packard, for the incineration of radioactively labelled samples): the amount of radioactive ^3H—H2O und ^14C—CO2 is extrapolated to the amount of ^3H-taurocholic acid or ^14C-cholesterol eliminated (dual isotope technique). […]

[3] = Water content on storage at 23° C./60% relative atmospheric humidity; type: physicochemical; conditions: for Water content (%): previously dried to 0.8% water
Method: The hydrate obtained in Example 2 was dried under reduced pressure at 50° C. until a water content of 0.8% had been reached. The crystalline product was stored at 23° C./60% relative atmospheric humidity.

[4] = storage time 0.5 h at 23° C./60% relative humidity
[5] = storage time 2 h at 23° C./60% relative humidity
[6] = storage time 4 h at 23° C./60% relative humidity
[7] = storage time 6 h at 23° C./60% relative humidity
[8] = storage time 24 h at 23° C./60% relative humidity

COc1ccc([C@@H]2[C@@H](CC[C@H](O)c3ccc(F)cc3)C(=O)N2c2ccc(CNC(=O)CCCCCCCCCCC(=O)NC[C@H](O)[C@@H](O)[C@H](O)[C@H](O)CO)cc2)cc1 [Amorphous compound of the formula II, reference compound]
release [%] ([1]; 15 min): 30.0% | release [%] ([1]; 30 min): 41.3% | release [%] ([1]; 45 min): 44.7% | release [%] ([1]; 60 min): 46.2%

COc1ccc([C@@H]2[C@@H](CC[C@H](O)c3ccc(F)cc3)C(=O)N2c2ccc(CNC(=O)CCCCCCCCCCC(=O)NC[C@H](O)[C@@H](O)[C@H](O)[C@H](O)CO)cc2)cc1 [Example 2]
release [%] ([1]; 15 min, listed as Crystalline compound of the formula I): 88.0% | release [%] ([1]; 30 min, listed as Crystalline compound of the formula I): 90.0% | release [%] ([1]; 45 min, listed as Crystalline compound of the formula I): 94.6% | release [%] ([1]; 60 min, listed as Crystalline compound of the formula I): 98.7% | amount in solution relative to the amorphous active ingredient ([1]; after 15 minutes): almost three times the amount of the amorphous active ingredient | ED200 value (fecal elimination [mg/mouse]) [2]: 0.01 mg/mouse

COc1ccc([C@@H]2[C@@H](CC[C@H](O)c3ccc(F)cc3)C(=O)N2c2ccc(CNC(=O)CCCCCCCCCCC(=O)NC[C@H](O)[C@@H](O)[C@H](O)[C@H](O)CO)cc2)cc1 [Example 6]
n (hydrate water per formula I) [3, 4]: 0.5 | Water content (%) [3, 4]: 1.1% | n (hydrate water per formula I) [3, 5]: 1.09 | Water content (%) [3, 5]: 2.4% | n (hydrate water per formula I) [3, 6]: 1.14 | Water content (%) [3, 6]: 2.5% | n (hydrate water per formula I) [3, 7]: 1.09 | Water content (%) [3, 7]: 2.4% | n (hydrate water per formula I) [3, 8]: 1.14 | Water content (%) [3, 8]: 2.5%
